In patent publication US9067922B2, “Chemical compounds” (Pfizer Limited, priority 2013, dated 2015):

Target: URAT-1 transporter (Homo sapiens (Human), UniProt Q96S37)
Assay: URAT-1 inhibitor activity: [14C]-uric acid uptake in CHO-URAT1(L)GFP#8 (CHO#8) cells, scintillation proximity
Type: cell-based
Conditions: inhibition of [14C]-uric acid (30 nM) uptake into CHO#8 cells; compound 0 to 10 μM; 4 parameter logistic fit
From the text: The nucleotide sequence for the long isoform of URAT1 (NM_144585) was C-terminally fused to that of enhanced green fluorescent protein (eGFP) (hereinafter referred to as URAT1(L)GFP). The combined sequence was codon-optimised and custom synthesized. The synthesized sequence was generated in pDONR221 Gateway entry vector (Invitrogen Life Technologies) prior to cloning in pLenti6.3/V5 Gateway destination vector (Invitrogen Life Technologies).
Lentiviral particles were generated according to ViraPower HiPerform expression system procedure (Invitrogen Life Technologies) and used to transduce CHO cells. […] The clonal pools were sorted using fluorescence-activated cell sorting (FACS) on the basis of GFP expression with the gating set at the top 50% of expression into single cells which were subsequently expanded to generate clonal lines. […] This cell line was used for all screening activities and is referred to as CHO-URAT1(L)GFP#8 or CHO#8.
The potency of the compounds of formula (I) as inhibitors of the URAT-1 transporter was determined as follows.
CHO#8 cells were cultured in cell line maintenance flasks in medium consisting of Dulbecco's modified Eagle medium (DMEM) with high glucose and sodium pyruvate (4.5 g of glucose per liter, Invitrogen Life Technologies), supplemented with heat-inactivated foetal bovine serum (FBC, 10% v/v), 1×NEAA (non-essential amino acids) and blasticidin (10 μg/ml). Cultures were grown in 175 cm^2 tissue culture flasks in a humidified incubator at approximately 37° C. in approximately 95% air/5% CO2. Near confluent CHO#8 cell cultures were harvested by trypsinisation, re-suspended in culture medium and the process was repeated once or twice weekly to provide sufficient cells for use.
Assay ready flasks were generated by the same method, except the cells were not cultured in blasticidin.
Assay ready frozen cells were generated by freezing 40,000,000 cells in 1 ml of FBS (without blasticidin) containing 10% DMSO per vial. One vial was sufficient for 5 assay plates. Each vial was thawed rapidly to 37° C., washed and re-suspended in pre-warmed culture medium for seeding onto assay plates.
CHO#8 cells were seeded onto Cytostar™ 96-well plates at a density of […]. The cells were cultured for 1 day at approximately 37° C. in a humidified incubator containing approximately 5% CO2 in air. After approximately 24 hours culture, cells were used for uptake experiments.
On the day of assay, culture medium was removed from the wells and the cells were washed once with 50 μL of chloride-containing buffer (136.7 mM NaCl, 5.36 mM KCl, 0.952 mM CaCl2, 0.441 mM KH2PO4, 0.812 mM MgSO4, 5.6 mM D-glucose, 0.383 mM Na2HPO4.2H2O, 10 mM HEPES, pH 7.4 with NaOH). The cells were pre-incubated with another 50 μL of chloride-containing buffer for one hour at approximately 37° C. in a humidified incubator containing approximately 5% CO2 in air.
Assay compound plates were prepared by diluting the compounds of formula (I) with chloride-free buffer (125 mM Na-gluconate, 4.8 mM K-gluconate, 1.3 mM Ca-gluconate, 1.2 mM KH2PO4, 1.2 mM MgSO4, 5.6 mM D-glucose, 25 mM HEPES, pH 7.4 with NaOH) in 100% DMSO to a final concentration of 1% DMSO. [^14C]-Uric Uric acid working stock was made by addition of radiolabeled compound to a final concentration of 120 nM in chloride-free buffer. In all wells, the final assay concentration of solvent (DMSO) was 0.25%; the final assay concentration of [^14C]-uric acid was 30 nM in chloride-free buffer and the final compound of formula (I) concentrations ranged from 0 to 10 μM.
After pre-incubation, cells were washed with 50 μL of chloride-free buffer and another 50 μL of chloride-free buffer was added.

Sequence of URAT-1 transporter (Q96S37 other isoform, or with tags, fused parts or gaps): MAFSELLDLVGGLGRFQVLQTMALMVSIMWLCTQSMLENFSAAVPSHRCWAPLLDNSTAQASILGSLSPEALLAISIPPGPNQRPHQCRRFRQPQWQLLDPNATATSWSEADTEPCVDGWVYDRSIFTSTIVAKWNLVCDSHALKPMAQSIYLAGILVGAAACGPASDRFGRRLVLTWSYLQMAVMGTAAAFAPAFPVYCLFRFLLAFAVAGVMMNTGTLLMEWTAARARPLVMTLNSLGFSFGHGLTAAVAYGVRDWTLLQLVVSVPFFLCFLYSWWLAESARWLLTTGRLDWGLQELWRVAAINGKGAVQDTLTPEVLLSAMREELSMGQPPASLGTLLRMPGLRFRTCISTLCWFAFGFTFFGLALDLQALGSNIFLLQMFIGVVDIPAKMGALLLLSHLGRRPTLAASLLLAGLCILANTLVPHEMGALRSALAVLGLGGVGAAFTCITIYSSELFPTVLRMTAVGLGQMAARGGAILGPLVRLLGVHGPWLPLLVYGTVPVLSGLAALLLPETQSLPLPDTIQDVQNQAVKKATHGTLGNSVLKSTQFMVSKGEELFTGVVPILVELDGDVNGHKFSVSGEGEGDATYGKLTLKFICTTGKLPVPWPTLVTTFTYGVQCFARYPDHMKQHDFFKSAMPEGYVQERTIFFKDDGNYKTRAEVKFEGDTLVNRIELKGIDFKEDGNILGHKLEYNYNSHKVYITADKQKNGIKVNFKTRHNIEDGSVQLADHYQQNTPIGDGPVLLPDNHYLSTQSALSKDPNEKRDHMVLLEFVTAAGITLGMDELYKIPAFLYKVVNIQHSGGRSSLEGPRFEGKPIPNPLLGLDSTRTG

Structure (SMILES)	IC50 [nM]
N#Cc1cc(F)ccc1Oc1ccc(S(=O)(=O)Nc2ccc(F)cn2)cc1C#N [Example 36, 3-cyano-4-(2-cyano-4-fluorophenoxy)-N-(5-fluoropyridin-2-yl)benzenesulfonamide]	241
N#Cc1cc(S(=O)(=O)Nc2ccc(F)cn2)ccc1Oc1ccc(F)c(Cl)c1Cl [Example 38, 3-cyano-4-(2,3-dichloro-4-fluorophenoxy)-N-(5-fluoropyridin-2-yl)benzenesulfonamide]	55
Cc1ccc(Cl)cc1Oc1ccc(S(=O)(=O)Nc2ccc(F)cn2)cc1C#N [Example 39, 4-(5-chloro-2-methylphenoxy)-3-cyano-N-(5-fluoropyridin-2-yl)benzenesulfonamide]	80
N#Cc1cc(S(=O)(=O)Nc2ccc(F)cn2)ccc1Oc1cc(F)cc(C(F)(F)F)c1 [Example 40, 3-cyano-N-(5-fluoropyridin-2-yl)-4-[3-fluoro-5-(trifluoromethyl)phenoxy]benzenesulfonamide]	988
N#Cc1cc(S(=O)(=O)Nc2ccc(F)cn2)ccc1Oc1ccccc1F [Example 41, 3-cyano-4-(2-fluorophenoxy)-N-(5-fluoropyridin-2-yl)benzenesulfonamide]	162
Cc1ccc(Oc2ccc(S(=O)(=O)Nc3ccc(F)cn3)cc2C#N)c(Cl)c1 [Example 42, 4-(2-chloro-4-methylphenoxy)-3-cyano-N-(5-fluoropyridin-2-yl)benzenesulfonamide]	383
N#Cc1ccc(Oc2ccc(S(=O)(=O)Nc3ccc(F)cn3)cc2C#N)cc1F [Example 43, 3-cyano-4-(4-cyano-3-fluorophenoxy)-N-(5-fluoropyridin-2-yl)benzenesulfonamide]	53
COc1ccc(Cl)c(Oc2ccc(S(=O)(=O)Nc3ccc(F)cn3)cc2C#N)c1 [Example 44, 4-(2-chloro-5-methoxyphenoxy)-3-cyano-N-(5-fluoropyridin-2-yl)benzenesulfonamide]	167
N#Cc1cc(Cl)ccc1Oc1ccc(S(=O)(=O)Nc2ccc(F)cn2)cc1C#N [Example 45, 4-(4-chloro-2-cyanophenoxy)-3-cyano-N-(5-fluoropyridin-2-yl)benzenesulfonamide]	174
CCc1ccccc1Oc1ccc(S(=O)(=O)Nc2ccc(F)cn2)cc1C#N [Example 46, 3-cyano-4-(2-ethylphenoxy)-N-(5-fluoropyridin-2-yl)benzenesulfonamide]	107
N#Cc1cc(S(=O)(=O)Nc2ccc(F)cn2)ccc1Oc1ccc(Cl)cc1F [Example 47, 4-(4-chloro-2-fluorophenoxy)-3-cyano-N-(5-fluoropyridin-2-yl)benzenesulfonamide]	50

Next, values leading:

IC50 [nM]	Structure (SMILES)
683	N#Cc1cc(S(=O)(=O)Nc2ccc(F)cn2)ccc1Oc1ccc(F)c(C(F)(F)F)c1 [Example 48, 3-cyano-N-(5-fluoropyridin-2-yl)-4-[4-fluoro-3-(trifluoromethyl)phenoxy]benzenesulfonamide]
> 1380	CC(C)c1ccccc1Oc1ccc(S(=O)(=O)Nc2ccc(F)cn2)cc1C#N [Example 49, 3-cyano-N-(5-fluoropyridin-2-yl)-4-[2-(propan-2-yl)phenoxy]benzenesulfonamide]
> 10000	CCc1ccc(Oc2ccc(S(=O)(=O)Nc3ccc(F)cn3)cc2C#N)cc1 [Example 50, 3-cyano-4-(4-ethylphenoxy)-N-(5-fluoropyridin-2-yl)benzenesulfonamide]
171	N#Cc1cc(S(=O)(=O)Nc2ccc(F)cn2)ccc1Oc1ccccc1C(F)(F)F [Example 51, 3-cyano-N-(5-fluoropyridin-2-yl)-4-[2-(trifluoromethyl)phenoxy]benzenesulfonamide]
259	N#Cc1cc(S(=O)(=O)Nc2ccc(F)cn2)ccc1Oc1cccc(F)c1 [Example 52, 3-cyano-4-(3-fluorophenoxy)-N-(5-fluoropyridin-2-yl)benzenesulfonamide]
191	N#Cc1cc(S(=O)(=O)Nc2ccc(F)cn2)ccc1Oc1cc(F)ccc1F [Example 53, 3-cyano-4-(2,5-difluorophenoxy)-N-(5-fluoropyridin-2-yl)benzenesulfonamide]
